Laboratory results published in US6737383B1, “Herbicidal oxadiazolidines” (priority 1999, dated 2004).

Tests used:
[1] = test system: corn; assay: Test B pre/postemergence corn; assay type: in vivo, Zea mays
Procedure, shortened: (§1)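 Herbicidal effect was estimated by eye on a ten-point control scale after plants spent twelve to sixteen days in a greenhouse following soil or foliar treatment. Foliar sprays targeted plants at one to four leaves; all doses were formulated in a non-phytotoxic solvent with surfactant.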

[2] = test system: velvetleaf; assay: Test B pre/postemergence velvetleaf; assay type: in vivo, Abutilon theophrasti
Procedure, shortened: as §1

[3] = test system: blackgrass; assay: Test B pre/postemergence blackgrass; assay type: in vivo, Alopecurus myosuroides
Procedure, shortened: as §1

[4] = test system: crabgrass; assay: Test B pre/postemergence crabgrass; assay type: in vivo, Digitaria sanguinalis
Procedure, shortened: as §1

[5] = test system: wild oat; assay: Test B pre/postemergence wild oat; assay type: in vivo, Avena fatua
Procedure, shortened: as §1

[6] = test system: rape; assay: Test B pre/postemergence rape; assay type: in vivo, Brassica napus
Procedure, shortened: as §1

[7] = test system: surinam grass; assay: Test B pre/postemergence surinam grass; assay type: in vivo, Brachiaria decumbens
Procedure, shortened: as §1

[8] = test system: rice; assay: Test B flood test rice; assay type: in vivo, Oryza sativa; conditions: flood test species
Procedure, shortened: (§2)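 Read-out is a visual response score from 0 (no effect) to 10 (complete control), assigned by comparison with untreated controls. Treatment was applied at the 2-leaf stage, and plants stayed in the greenhouse for twelve to sixteen days before scoring.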

[9] = test system: bamyardgrass; assay: Test B flood test barnyardgrass; assay type: in vivo, Echinochloa crus-galli; conditions: flood test species
Procedure, shortened: as §2

[10] = test system: duck salad; assay: Test B flood test duck salad; assay type: in vivo, Heteranthera limosa; conditions: flood test species
Procedure, shortened: as §2

[11] = test system: purple nutsedge; assay: Test B pre/postemergence purple nutsedge; assay type: in vivo, Cyperus rotundus
Procedure, shortened: as §1

[12] = test system: cocklebur; assay: Test B pre/postemergence cocklebur; assay type: in vivo, Xanthium strumarium
Procedure, shortened: as §1

[13] = test system: smallflower flatsedge; assay: Test B flood test smallflower flatsedge; assay type: in vivo, Cyperus difformis; conditions: flood test species
Procedure, shortened: as §2

[14] = test system: bedstraw; assay: Test B pre/postemergence bedstraw; assay type: in vivo, Galium aparine; conditions: Postemergence
Procedure, shortened: as §1

[15] = test system: pigweed; assay: Test B pre/postemergence pigweed; assay type: in vivo, Amaranthus retroflexus
Procedure, shortened: as §1

[16] = test system: wheat; assay: Test B pre/postemergence wheat; assay type: in vivo, Triticum aestivum
Procedure, shortened: as §1

[17] = test system: soybean; assay: Test B pre/postemergence soybean; assay type: in vivo, Glycine max
Procedure, shortened: as §1

[18] = test system: morningglory; assay: Test B pre/postemergence morningglory; assay type: in vivo, Ipomoea hederacea
Procedure, shortened: as §1

[19] = test system: giant foxtail; assay: Test B pre/postemergence giant foxtail; assay type: in vivo, Setaria faberii
Procedure, shortened: as §1

[20] = test system: sugar beet; assay: Test B pre/postemergence sugar beet; assay type: in vivo, Beta vulgaris
Procedure, shortened: as §1

[21] = Postemergence, Rate 125 g/ha, scale 0 to 10, 0 is no effect, 10 is complete control
[22] = Postemergence, Rate 250 g/ha, scale 0 to 10
[23] = Postemergence, Rate 500 g/ha, scale 0 to 10, 0 is no effect, 10 is complete control
[24] = Preemergence, Rate 62 g/ha, scale of 0 to 10 where 0 is no effect and 10 is complete control
[25] = Preemergence, Rate 125 g/ha, scale 0 to 10, 0 is no effect, 10 is complete control
[26] = Preemergence, Rate 250 g/ha, scale 0 to 10, 0 is no effect, 10 is complete control
[27] = Preemergence, Rate 500 g/ha, scale 0 to 10, 0 is no effect, 10 is complete control
[28] = Rate 62 g/ha, Postemergence, scale 0 to 10 (0 no effect, 10 complete control)
[29] = Rate 62 g/ha, Pre-emergence, visual evaluation after twelve to sixteen days
[30] = Rate 125 g/ha, under heading Pre-emergence, visual evaluation after twelve to sixteen days
[31] = Rate 500 g/ha, Pre-emergence, scale 0 to 10 (0 no effect, 10 complete control)

CC(C)C(=O)Cn1c(=O)on(C(=O)N(c2ccccc2)C(C)C)c1=O [Compound 485]
Corn plant response rating [1, 21]: 0
Corn plant response rating [1, 22]: 0
Plant response rating, Corn [1, 23]: 0
Plant response rating, Corn [1, 24]: 0
Corn plant response rating [1, 25]: 0
Corn plant response rating [1, 26]: 0
Corn plant response rating [1, 27]: 7
Corn plant response rating [1, 28]: 0
Velvetleaf plant response rating [2, 21]: 0
Plant response rating, Velvetleaf [2, 23]: 4
Plant response rating, Velvetleaf [2, 24]: 0
Velvetleaf plant response rating [2, 25]: 0
Velvetleaf plant response rating [2, 26]: 0
Velvetleaf plant response rating [2, 27]: 3
Velvetleaf plant response rating [2, 28]: 0
Blackgrass plant response rating [3, 21]: 7
Blackgrass plant response rating [3, 22]: 7
Plant response rating, Blackgrass [3, 23]: 8
Plant response rating, Blackgrass [3, 24]: 4
Blackgrass plant response rating [3, 25]: 8
Blackgrass plant response rating [3, 26]: 8
Blackgrass plant response rating [3, 27]: 9
Blackgrass plant response rating [3, 28]: 3
Crabgrass plant response rating [4, 21]: 6
Crabgrass plant response rating [4, 22]: 7
Plant response rating, Crabgrass [4, 23]: 8
Plant response rating, Crabgrass [4, 24]: 6
Crabgrass plant response rating [4, 25]: 7
Crabgrass plant response rating [4, 26]: 10
Crabgrass plant response rating [4, 27]: 10
Crabgrass plant response rating [4, 28]: 3
Wild oats plant response rating [5, 21]: 0
Plant response rating, Wild oats [5, 23]: 4
Plant response rating, Wild oats [5, 24]: 2
Wild oats plant response rating [5, 25]: 5
Wild oats plant response rating [5, 26]: 6
Wild oats plant response rating [5, 27]: 8
Wild oats plant response rating [5, 28]: 0
Rape plant response rating [6, 21]: 0
Plant response rating, Rape [6, 23]: 0
Plant response rating, Rape [6, 24]: 0
Rape plant response rating [6, 25]: 0
Rape plant response rating [6, 26]: 0
Rape plant response rating [6, 27]: 2
Rape plant response rating [6, 28]: 0
B. signalgrass plant response rating [7, 21]: 0
B. signalgrass plant response rating ([7]; Postemergence, Rate 250 g/ha, scale 0 to 10, 0 no effect, 10 complete control): 4
Plant response rating, B. signalgrass [7, 23]: 5
Plant response rating, B. signalgrass [7, 24]: 3
B. signalgrass plant response rating [7, 25]: 5
B. signalgrass plant response rating [7, 26]: 8
B. signalgrass plant response rating [7, 27]: 8
B. signalgrass plant response rating [7, 28]: 0
Plant response rating, Rice (0 to 10 scale, 0 is no effect, 10 is complete control) [8, 29]: 0
Rice plant response rating (0 to 10 scale, 0 is no effect, 10 is complete control) [8, 30]: 0
Rice plant response rating [8, 31]: 0
Plant response rating, Barnyardgrass (0 to 10 scale, 0 is no effect, 10 is complete control) [9, 29]: 0
Barnyardgrass plant response rating (0 to 10 scale, 0 is no effect, 10 is complete control) [9, 30]: 0
Barnyardgrass plant response rating [9, 31]: 0
Plant response rating, Ducksalad (0 to 10 scale, 0 is no effect, 10 is complete control) [10, 29]: 0
Ducksalad plant response rating (0 to 10 scale, 0 is no effect, 10 is complete control) [10, 30]: 0
Ducksalad plant response rating [10, 31]: 0
Nutsedge plant response rating [11, 21]: 0
Plant response rating, Nutsedge [11, 23]: 0
Plant response rating, Nutsedge [11, 24]: 0
Nutsedge plant response rating [11, 25]: 0
Nutsedge plant response rating [11, 26]: 0
Nutsedge plant response rating [11, 27]: 0
Nutsedge plant response rating [11, 28]: 0
Cocklebur plant response rating [12, 21]: 0
Cocklebur plant response rating [12, 22]: 0
Plant response rating, Cocklebur [12, 23]: 0
Plant response rating, Cocklebur [12, 24]: 0
Cocklebur plant response rating [12, 25]: 0
Cocklebur plant response rating [12, 26]: 0
Cocklebur plant response rating [12, 27]: 0
Cocklebur plant response rating [12, 28]: 0
Plant response rating, S. Flatsedge (0 to 10 scale, 0 is no effect, 10 is complete control) [13, 29]: 0
S. Flatsedge plant response rating (0 to 10 scale, 0 is no effect, 10 is complete control) [13, 30]: 0
S. Flatsedge plant response rating [13, 31]: 0
Bedstraw plant response rating ([14]; Rate 125 g/ha, scale 0 to 10, 0 is no effect, 10 is complete control): 0
Bedstraw plant response rating ([14]; Rate 250 g/ha, scale 0 to 10): 2
Plant response rating, Bedstraw ([14]; Rate 500 g/ha, scale 0 to 10, 0 is no effect, 10 is complete control): 6
Bedstraw plant response rating ([14]; Rate 62 g/ha, scale 0 to 10 (0 no effect, 10 complete control)): 0
Redroot pigweed plant response rating [15, 21]: 0
Plant response rating, Redroot pigweed [15, 23]: 2
Plant response rating, Redroot pigweed [15, 24]: 1
Redroot pigweed plant response rating [15, 25]: 6
Redroot pigweed plant response rating [15, 27]: 9
Redroot pigweed plant response rating [15, 28]: 0
Wheat plant response rating [16, 21]: 0
Plant response rating, Wheat [16, 23]: 5
Plant response rating, Wheat [16, 24]: 0
Wheat plant response rating [16, 25]: 2
Wheat plant response rating [16, 26]: 3
Wheat plant response rating [16, 27]: 5
Wheat plant response rating [16, 28]: 0
Soybean plant response rating [17, 21]: 4
Plant response rating, Soybean [17, 23]: 5
Plant response rating, Soybean [17, 24]: 0
Soybean plant response rating [17, 25]: 0
Soybean plant response rating [17, 26]: 0
Soybean plant response rating [17, 27]: 0
Soybean plant response rating [17, 28]: 2
Morningglory plant response rating [18, 21]: 10
Plant response rating, Morningglory [18, 23]: 10
Plant response rating, Morningglory [18, 24]: 0
Morningglory plant response rating [18, 25]: 0
Morningglory plant response rating [18, 26]: 0
Morningglory plant response rating [18, 27]: 4
Morningglory plant response rating [18, 28]: 8
Giant foxtail plant response rating [19, 21]: 7
Plant response rating, Giant foxtail [19, 23]: 8
Plant response rating, Giant foxtail [19, 24]: 7
Giant foxtail plant response rating [19, 25]: 8
Giant foxtail plant response rating [19, 26]: 10
Giant foxtail plant response rating [19, 27]: 10
Giant foxtail plant response rating [19, 28]: 5
Sugarbeets plant response rating [20, 21]: 0
Plant response rating, Sugarbeets [20, 23]: 0
Plant response rating, Sugarbeets [20, 24]: 0
Sugarbeets plant response rating [20, 25]: 0
Sugarbeets plant response rating [20, 26]: 0
Sugarbeets plant response rating [20, 27]: 2
Sugarbeets plant response rating [20, 28]: 0
